In ChEMBL document CHEMBL4339235, “Guitarrins A-E and Aluminumguitarrin A: 5-Azaindoles from the Northwestern Pacific Marine Sponge Guitarra fimbriata” (J Nat Prod, 2019):

Assay: Inhibition of Cobetia marina ALP using pNPP as substrate; call rule not given here

Row | Structure (SMILES) | IC50 | IC50 (read-out: IC50) [µM]
1 | O=C(O)c1cc2[nH]ccc2c(CO)n1 |  | 2
2 | O=C(O)CCCc1nccc2[nH]ccc12 | Not Active | 
3 | O=C(O)c1nccc2[nH]ccc12 | Not Active | 

Other lines, results leading:

Row | IC50 | IC50 (read-out: IC50) [µM] | Structure (SMILES)
4 | Not Active |  | OCc1nccc2[nH]ccc12
5 |  | 100 | O=C(O)c1nc(CO)c2cc[nH]c2c1O
